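Five concentrations, 48 hours, 96-well plates. GI50 is the concentration that inhibits growth by half.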 Activity calls are given as the source filed them. Cut-off read from the data, not from the text of the source: active = GI50 up to about 1.1 µM and inactive = higher.
How the values were obtained:
Assay in all cases: DTP human tumour cell line panel, 48 h
UACC-62 = test system: UACC-62
OVCAR-8 = test system: OVCAR-8
HCT-15 = test system: HCT-15
EKVX = test system: EKVX
HL-60 = test system: HL-60
SW-620 = test system: SW-620
DU-145 = test system: DU-145
U-251 = test system: U-251
OVCAR-4 = test system: OVCAR-4
OVCAR-3 = test system: OVCAR-3
MDA-N = test system: MDA-N
SNB-19 = test system: SNB-19
PC-3 = test system: PC-3
OVCAR-5 = test system: OVCAR-5
A498 = test system: A498
SR = test system: SR
UO-31 = test system: UO-31
RXF 393 = test system: RXF 393
SF-539 = test system: SF-539
NCI/ADR-RES = test system: NCI/ADR-RES
LOX IMVI = test system: LOX IMVI
SF-295 = test system: SF-295
SN12C = test system: SN12C
CCRF-CEM = test system: CCRF-CEM
SK-MEL-2 = test system: SK-MEL-2
RPMI-8226 = test system: RPMI-8226
786-0 = test system: 786-0
SK-MEL-28 = test system: SK-MEL-28
SK-MEL-5 = test system: SK-MEL-5
A549 = test system: A549
HT-29 = test system: HT-29
M14 = test system: M14
KM12 = test system: KM12
TK-10 = test system: TK-10
SK-OV-3 = test system: SK-OV-3
MDA-MB-435 = test system: MDA-MB-435
NCI-H522 = test system: NCI-H522
K562 = test system: K562
NCI-H23 = test system: NCI-H23
HCT-116 = test system: HCT-116
HCC 2998 = test system: HCC 2998
UACC-257 = test system: UACC-257
MOLT-4 = test system: MOLT-4
MCF7 = test system: MCF7
Malme-3M = test system: Malme-3M
COLO 205 = test system: COLO 205
SF-268 = test system: SF-268
MDA-MB-231 = test system: MDA-MB-231
CAKI-1 = test system: CAKI-1
IGROV-1 = test system: IGROV-1
ACHN = test system: ACHN
HOP-62 = test system: HOP-62
BT-549 = test system: BT-549
SNB-75 = test system: SNB-75
NCI-H226 = test system: NCI-H226
HOP-92 = test system: HOP-92
NCI-H460 = test system: NCI-H460
T47D = test system: T47D

Measured: GI50

COC(=O)[C@H](NC(=O)OC(C)(C)C)[C@H]1COC(C)(C)O1
> 100 µM: HCT-15
inactive: UACC-62 > 100 µM | OVCAR-8 > 100 µM | EKVX > 100 µM | HL-60 > 100 µM | SW-620 > 100 µM | DU-145 > 100 µM | U-251 > 100 µM | OVCAR-4 > 100 µM | OVCAR-3 > 100 µM | MDA-N > 100 µM | SNB-19 > 100 µM | PC-3 > 100 µM | OVCAR-5 > 100 µM | A498 > 100 µM | SR > 100 µM | UO-31 > 100 µM | RXF 393 > 100 µM | SF-539 > 100 µM | NCI/ADR-RES > 100 µM | LOX IMVI > 100 µM | SF-295 > 100 µM | SN12C > 100 µM | CCRF-CEM > 100 µM | SK-MEL-2 > 100 µM | RPMI-8226 > 100 µM | 786-0 > 100 µM | SK-MEL-28 > 100 µM | SK-MEL-5 > 100 µM | A549 > 100 µM | HT-29 > 100 µM | M14 > 100 µM | KM12 > 100 µM | TK-10 > 100 µM | SK-OV-3 > 100 µM | MDA-MB-435 > 100 µM | NCI-H522 > 100 µM | K562 > 100 µM | NCI-H23 > 100 µM | HCT-116 > 100 µM | HCC 2998 > 100 µM | UACC-257 > 100 µM | MOLT-4 > 100 µM | MCF7 > 100 µM | Malme-3M 40.1 µM | COLO 205 > 100 µM | SF-268 > 100 µM | MDA-MB-231 > 100 µM | CAKI-1 > 100 µM | IGROV-1 > 100 µM | ACHN > 100 µM | HOP-62 > 100 µM | BT-549 > 100 µM

Cc1ccc(S(=O)(=O)/N=C(\NN)Nc2ccc(Cl)cc2)cc1
> 100 µM: HCT-15
inactive: UACC-62 > 100 µM | SNB-75 37.8 µM | OVCAR-8 > 100 µM | EKVX > 100 µM | HL-60 > 100 µM | SW-620 > 100 µM | DU-145 > 100 µM | U-251 > 100 µM | OVCAR-4 > 100 µM | OVCAR-3 > 100 µM | MDA-N > 100 µM | SNB-19 > 100 µM | PC-3 > 100 µM | OVCAR-5 > 100 µM | A498 > 100 µM | SR 83.9 µM | UO-31 > 100 µM | RXF 393 60.7 µM | SF-539 35.2 µM | NCI-H226 58.3 µM | NCI/ADR-RES > 100 µM | LOX IMVI > 100 µM | SF-295 > 100 µM | HOP-92 > 100 µM | SN12C > 100 µM | CCRF-CEM > 100 µM | SK-MEL-2 > 100 µM | RPMI-8226 > 100 µM | 786-0 > 100 µM | SK-MEL-28 > 100 µM | SK-MEL-5 > 100 µM | A549 > 100 µM | HT-29 > 100 µM | M14 > 100 µM | KM12 > 100 µM | NCI-H460 > 100 µM | TK-10 > 100 µM | SK-OV-3 > 100 µM | K562 > 100 µM | NCI-H23 > 100 µM | HCT-116 > 100 µM | UACC-257 > 100 µM | MOLT-4 > 100 µM | T47D 88.3 µM | MCF7 > 100 µM | COLO 205 > 100 µM | MDA-MB-231 > 100 µM | CAKI-1 > 100 µM | IGROV-1 > 100 µM | ACHN > 100 µM | HOP-62 > 100 µM | BT-549 > 100 µM

— ChEMBL document CHEMBL1201862, “PubChem BioAssay data set” (2004)
